Laboratory results published in ChEMBL document CHEMBL4428125, “8-Substituted 1,3-dimethyltetrahydropyrazino[2,1-f]purinediones: Water-soluble adenosine receptor antagonists and monoamine oxidase B inhibitors” (Bioorg Med Chem, 2016).
In brackets after ≈: the same amount, converted by molar mass. Activity calls are given as the source filed them. No cut-off for these calls is given here.

Tests used:
[1] = target: T1, Amine oxidase [flavin-containing] B (Homo sapiens, UniProt P27338); assay: Inhibition of recombinant human MAO-B expressed in baculovirus infected BTI insect cells at 10 uM preincubated for 30 mins followed by addition of p-tyramine as substrate measured over 45 mins by Amplex Red MAO assay relative to control; conditions: 0.75 h
T1 sequence (P27338 whole entry): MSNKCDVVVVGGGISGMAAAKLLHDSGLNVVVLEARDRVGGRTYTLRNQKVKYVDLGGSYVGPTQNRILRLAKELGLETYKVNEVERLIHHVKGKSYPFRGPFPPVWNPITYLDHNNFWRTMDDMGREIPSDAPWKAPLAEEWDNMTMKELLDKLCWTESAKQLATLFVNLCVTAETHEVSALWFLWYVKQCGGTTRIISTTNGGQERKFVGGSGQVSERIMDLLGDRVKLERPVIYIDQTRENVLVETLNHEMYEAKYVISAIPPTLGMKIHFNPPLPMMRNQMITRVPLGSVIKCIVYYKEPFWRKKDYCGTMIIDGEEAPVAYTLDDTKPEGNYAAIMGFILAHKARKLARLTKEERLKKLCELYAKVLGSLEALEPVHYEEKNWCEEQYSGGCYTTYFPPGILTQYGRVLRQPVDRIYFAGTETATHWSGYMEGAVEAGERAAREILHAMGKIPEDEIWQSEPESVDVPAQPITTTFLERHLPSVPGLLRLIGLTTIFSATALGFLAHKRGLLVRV

[2] = Thermodynamic solubility of the compound at pH 7.4; assay type: physicochemical; conditions: buffer, read-out: Therm_solubility
[3] = target: T2, Amine oxidase [flavin-containing] A (Homo sapiens, UniProt P21397); assay: Inhibition of recombinant human MAO-A expressed in baculovirus infected BTI insect cells at 10 uM preincubated for 30 mins followed by addition of p-tyramine as substrate measured over 45 mins by Amplex Red MAO assay relative to control; conditions: 0.75 h
T2 sequence (P21397 whole entry): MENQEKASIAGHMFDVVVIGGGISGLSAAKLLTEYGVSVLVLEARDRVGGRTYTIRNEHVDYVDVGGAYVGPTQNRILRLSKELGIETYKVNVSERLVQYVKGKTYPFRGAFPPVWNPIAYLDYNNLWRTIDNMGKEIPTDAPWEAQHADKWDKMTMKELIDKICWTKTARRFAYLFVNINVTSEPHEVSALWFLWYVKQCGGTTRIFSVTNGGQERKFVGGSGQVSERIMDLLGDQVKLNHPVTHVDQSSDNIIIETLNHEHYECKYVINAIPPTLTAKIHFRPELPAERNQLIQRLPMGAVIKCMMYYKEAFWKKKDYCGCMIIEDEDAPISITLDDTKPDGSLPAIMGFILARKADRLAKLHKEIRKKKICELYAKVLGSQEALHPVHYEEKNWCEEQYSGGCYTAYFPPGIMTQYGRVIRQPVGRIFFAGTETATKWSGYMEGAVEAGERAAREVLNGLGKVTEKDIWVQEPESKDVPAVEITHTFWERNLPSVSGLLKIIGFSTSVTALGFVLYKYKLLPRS

[4] = organism: Homo sapiens; assay: Selectivity ratio, ratio of Ki for human A2A receptor to Ki for human A1 receptor
[5] = target: T3, Adenosine receptor A1 (Homo sapiens) (UniProt P30542); assay: Agonist activity at recombinant human A1 receptor expressed in CHO cells assessed as inhibition of forskolin-induced cAMP accumulation at 10 uM preincubated for 20 mins prior to forskolin-stimulation measure after 5 mins by liquid scintillation counting method; assay type: functional, cell-based
T3 sequence (whole entry): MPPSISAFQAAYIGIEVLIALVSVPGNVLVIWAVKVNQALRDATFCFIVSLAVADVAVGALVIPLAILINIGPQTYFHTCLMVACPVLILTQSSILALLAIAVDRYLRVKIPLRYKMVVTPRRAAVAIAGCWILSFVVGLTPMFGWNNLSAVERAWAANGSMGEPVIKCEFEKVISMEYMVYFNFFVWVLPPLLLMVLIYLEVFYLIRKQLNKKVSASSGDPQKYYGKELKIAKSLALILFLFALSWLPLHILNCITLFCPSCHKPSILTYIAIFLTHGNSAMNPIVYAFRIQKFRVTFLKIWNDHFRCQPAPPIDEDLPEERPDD

[6] = target: T4, Adenosine receptor A2a (Homo sapiens, UniProt P29274); assay: Displacement of [3H]MSX from human A2A receptor measured after 30 mins by liquid scintillation counting method
[7] = target: T2, Amine oxidase [flavin-containing] A; assay: Inhibition of recombinant human MAO-A expressed in baculovirus infected BTI insect cells preincubated for 30 mins followed by addition of p-tyramine as substrate measured over 45 mins by Amplex Red MAO assay
[8] = target: T4, Adenosine receptor A2a; assay: Agonist activity at recombinant human A2A receptor expressed in CHO cells assessed as increase in forskolin-induced cAMP level at 10 uM preincubated for 20 mins prior to forskolin-stimulation measure after 5 mins by liquid scintillation counting method; assay type: functional, cell-based
[9] = target: T5, Adenosine receptor A1 (Rattus norvegicus, UniProt P25099); assay: Displacement of [3H]CCPA from A1 receptor in rat brain cortex membranes by liquid scintillation counting method; assay type: cell membranes
T5 sequence (P25099 whole entry): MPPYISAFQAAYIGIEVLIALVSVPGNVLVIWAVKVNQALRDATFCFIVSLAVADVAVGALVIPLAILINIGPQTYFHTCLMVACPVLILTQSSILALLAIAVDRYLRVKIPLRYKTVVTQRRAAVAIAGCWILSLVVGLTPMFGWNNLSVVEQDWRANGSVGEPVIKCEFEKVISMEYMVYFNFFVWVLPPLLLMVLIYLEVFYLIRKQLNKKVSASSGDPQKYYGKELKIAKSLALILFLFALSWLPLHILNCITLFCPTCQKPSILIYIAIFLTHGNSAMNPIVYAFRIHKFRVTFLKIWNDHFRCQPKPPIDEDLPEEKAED

[10] = target: T6, Adenosine receptor A2b (Homo sapiens) (UniProt P29275); assay: Displacement of [3H]PSB-603 from human A2B receptor expressed in CHO cell membrane at 1 uM relative to control; assay type: cell membranes
T6 sequence (whole entry): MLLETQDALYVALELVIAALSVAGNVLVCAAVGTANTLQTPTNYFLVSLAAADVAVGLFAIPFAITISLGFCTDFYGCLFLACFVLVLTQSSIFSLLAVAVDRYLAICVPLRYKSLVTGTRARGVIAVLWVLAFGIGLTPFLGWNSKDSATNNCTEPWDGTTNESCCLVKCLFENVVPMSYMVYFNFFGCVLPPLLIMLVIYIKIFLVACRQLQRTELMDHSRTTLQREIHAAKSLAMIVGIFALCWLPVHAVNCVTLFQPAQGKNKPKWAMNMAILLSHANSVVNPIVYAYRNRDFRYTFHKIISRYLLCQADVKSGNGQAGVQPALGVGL

[11] = target: T4, Adenosine receptor A2a; assay: Agonist activity at recombinant human A2A receptor expressed in CHO cells assessed as increase in forskolin-induced cAMP level at 1 uM preincubated for 20 mins prior to forskolin-stimulation measure after 5 mins by liquid scintillation counting method; assay type: functional, cell-based
[12] = target: Adenosine receptor A2a (Rattus norvegicus, UniProt P30543); assay: Displacement of [3H]MSX from A2A receptor in rat brain striatum membranes measured after 30 mins by liquid scintillation counting method; assay type: cell membranes
[13] = target: T7, Adenosine receptor A3 (Homo sapiens) (UniProt P0DMS8); assay: Displacement of [3H]PSB-11 from human A3 receptor expressed in CHO cell membrane at 10 uM by liquid scintillation counting method relative to control relative to control; assay type: cell membranes
T7 sequence (whole entry): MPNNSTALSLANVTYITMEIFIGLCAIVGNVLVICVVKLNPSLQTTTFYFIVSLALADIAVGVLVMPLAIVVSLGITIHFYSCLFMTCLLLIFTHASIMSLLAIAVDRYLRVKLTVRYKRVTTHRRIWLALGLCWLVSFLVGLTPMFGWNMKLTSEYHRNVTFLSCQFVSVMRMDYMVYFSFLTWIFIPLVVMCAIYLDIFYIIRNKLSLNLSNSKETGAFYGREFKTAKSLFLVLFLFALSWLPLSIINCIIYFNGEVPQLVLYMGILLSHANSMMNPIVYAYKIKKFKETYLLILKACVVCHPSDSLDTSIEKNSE

[14] = target: T8, Adenosine receptor A2b (Homo sapiens, UniProt P29275); assay: Displacement of [3H]PSB-603 from human A2B receptor expressed in CHO cell membrane; assay type: cell membranes
T8 sequence (P29275 whole entry): T6 sequence (whole entry)

[15] = target: T9, Adenosine receptor A1 (Homo sapiens, UniProt P30542); assay: Displacement of [3H]CCPA from human A1 receptor expressed in CHO cell membrane by liquid scintillation counting method; assay type: cell membranes
T9 sequence (P30542 whole entry): T3 sequence (whole entry)

[16] = target: T10, Adenosine receptor A3 (Homo sapiens, UniProt P0DMS8); assay: Displacement of [3H]PSB-11 from human A3 receptor expressed in CHO cell membrane by liquid scintillation counting method relative to control; assay type: cell membranes
T10 sequence (P0DMS8 whole entry): T7 sequence (whole entry)

[17] = target: T3, Adenosine receptor A1 (Homo sapiens); assay: Agonist activity at recombinant human A1 receptor expressed in CHO cells assessed as inhibition of forskolin-induced cAMP accumulation at 1 uM preincubated for 20 mins prior to forskolin-stimulation measure after 5 mins by liquid scintillation counting method; assay type: functional, cell-based
[18] = target: T1, Amine oxidase [flavin-containing] B; assay: Inhibition of recombinant human MAO-B expressed in baculovirus infected BTI insect cells preincubated for 30 mins followed by addition of p-tyramine as substrate measured over 45 mins by Amplex Red MAO assay
[19] = target: T7, Adenosine receptor A3 (Homo sapiens); assay: Displacement of [3H]PSB-11 from human A3 receptor expressed in CHO cell membrane at 1 uM by liquid scintillation counting method relative to control relative to control; assay type: cell membranes
[20] = target: T11, Adenosine receptor A1 (Rattus norvegicus) (UniProt P25099); assay: Displacement of [3H]CCPA from A1 receptor in rat brain cortex membranes at 1.5 uM by liquid scintillation counting method; assay type: cell membranes
T11 sequence (whole entry): T5 sequence (P25099 whole entry)

[21] = target: Adenosine receptor A2a (Rattus norvegicus) (UniProt P30543); assay: Displacement of [3H]MSX from A2A receptor in rat brain striatum membranes at 1 uM measured after 30 mins by liquid scintillation counting method relative to control; assay type: cell membranes
[22] = target: T5, Adenosine receptor A1; assay: Displacement of [3H]CCPA from rat A1 receptor by liquid scintillation counting method
[23] = target: T4, Adenosine receptor A2a; assay: Displacement of [3H]MSX from human A2A receptor by liquid scintillation counting method
[24] = target: T5, Adenosine receptor A1; assay: Displacement of [3H]MSX from rat A1 receptor measured after 75 mins by liquid scintillation counting method
[25] = target: T6, Adenosine receptor A2b (Homo sapiens); assay: Displacement of [3H]PSB-603 from human A2B receptor expressed in CHO cell membrane measured after 75 mins by liquid scintillation counting method relative to control; assay type: cell membranes
[26] = target: T8, Adenosine receptor A2b; assay: Displacement of [3H]PSB-603 from human A2B receptor expressed in CHO cell membrane measured after 75 mins by liquid scintillation counting method; assay type: cell membranes

T4 sequence (P29274 whole entry): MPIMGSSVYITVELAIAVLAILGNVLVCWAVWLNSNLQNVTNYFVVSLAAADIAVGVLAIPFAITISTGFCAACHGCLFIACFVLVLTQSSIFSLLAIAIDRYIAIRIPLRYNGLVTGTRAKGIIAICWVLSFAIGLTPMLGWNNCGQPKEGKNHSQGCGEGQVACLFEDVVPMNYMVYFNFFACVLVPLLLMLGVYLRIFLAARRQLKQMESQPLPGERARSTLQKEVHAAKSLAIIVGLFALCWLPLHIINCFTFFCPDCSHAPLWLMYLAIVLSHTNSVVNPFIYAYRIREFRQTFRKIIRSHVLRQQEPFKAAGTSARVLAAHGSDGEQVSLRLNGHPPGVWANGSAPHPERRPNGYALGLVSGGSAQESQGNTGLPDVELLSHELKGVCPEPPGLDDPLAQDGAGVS
Chain of Adenosine receptor A2a (Rattus norvegicus, UniProt P30543) (P30543 whole entry): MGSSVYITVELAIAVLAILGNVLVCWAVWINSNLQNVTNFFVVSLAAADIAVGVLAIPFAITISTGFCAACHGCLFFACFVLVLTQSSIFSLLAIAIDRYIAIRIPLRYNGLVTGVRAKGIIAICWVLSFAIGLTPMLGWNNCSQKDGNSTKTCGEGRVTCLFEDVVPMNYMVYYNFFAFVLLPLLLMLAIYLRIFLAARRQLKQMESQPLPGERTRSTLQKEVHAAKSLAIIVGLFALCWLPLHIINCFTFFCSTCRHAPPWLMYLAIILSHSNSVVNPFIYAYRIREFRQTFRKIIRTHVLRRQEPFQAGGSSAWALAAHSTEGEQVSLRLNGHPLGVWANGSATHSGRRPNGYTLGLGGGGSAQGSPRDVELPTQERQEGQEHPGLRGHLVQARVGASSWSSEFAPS
Chain of Adenosine receptor A2a (Rattus norvegicus) (P30543 whole entry): as above

In the case of Cn1c(=O)c2c(nc3n2CCN(CCCc2ccc(Cl)cc2)C3)n(C)c1=O, the inhibition at 10 µM [1] is reported as 44%, the solubility thermodynamic [2] is reported as 4 µg/mL (≈ 10.3 µM) and the inhibition at 10 µM [3] is reported as 12%. For the same compound, the Ratio Ki [4] was 4, the Activity [5] was “inactive” and the Ki [6] was 0.23 µM. For the same compound, the IC50 [7] was > 10 µM, the Activity [8] was “inactive” and the Ki [9] was 0.352 µM. For the same compound, the Activity [10] was 7%, the Activity [11] was “inactive” and the Ki [12] was 0.316 µM. For the same compound, the Activity [13] was 34%, the Ki [14] was > 1 µM and the Ki [15] was 0.0655 µM. The Ki [16] was > 10 µM, the Activity [17] was “inactive” and the IC50 [18] was > 10 µM.
For Cn1c(=O)c2c(nc3n2CCN(c2ccc(Br)cc2)C3)n(C)c1=O, the Ki [9] was > 1.5 µM, the Activity [10] was 11% and the Ki [12] was 3.9 µM. The Activity [19] was 2%, the Ki [14] was > 1 µM and the Activity [20] was 15%. The Ki [16] was > 1 µM and the IC50 [18] was 0.132 µM.
In the case of Cn1c(=O)c2c(nc3n2CCN(c2ccc(Cl)cc2)C3)n(C)c1=O, the inhibition at 10 µM [1] is reported as 15%, the Ki [9] is reported as > 1.5 µM and the Activity [10] is reported as 9%. For the same compound, the Ki [12] was > 10 µM, the Activity [21] was 34% and the Activity [19] was 2%. For the same compound, the Ki [14] was > 1 µM, the Activity [20] was 1% and the Ki [16] was > 1 µM. The IC50 [18] was > 10 µM.
In the case of Cn1c(=O)c2c(nc3n2CCN(Cc2ccc(Cl)c(Cl)c2)C3)n(C)c1=O, the inhibition at 10 µM [3] is reported as 5%, the Ki [22] is reported as 0.351 µM and the IC50 [7] is reported as > 10 µM. The Ki [23] was 1.51 µM, the Ki [24] was 0.322 µM and the Activity [25] was 15%. The Activity [19] was 13%, the Ki [26] was > 1 µM and the Ki [15] was 0.791 µM. For the same compound, the Ki [16] was > 1 µM and the IC50 [18] was 0.197 µM.
